The results in this text go back to patent publication US20250163057A1, “DCN-1 MODULATING COMPOUNDS AND METHODS OF USE THEREOF” (Cellarity, Inc., priority 2023, published 2025).

A word on the IC50: it is the point on the concentration scale where inhibition reaches its midpoint.

Where two headings read alike, the source gives them in different places.

In experiment [1] the target is DCN1 (DCUND1) protein PONY domain (Homo sapiens (Human), UniProt Q96GG9). Briefly: TR-FRET assay, DCN1 binding with FAM-labeled probe. The method, boiled down: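 Binding was read as the TR-FRET ratio between a FAM-tagged inhibitor probe and Tb-labeled biotinylated E. coli-expressed DCN1 PONY domain, measured 1, 5 and 24 h after compound addition. The two setups used 5 nM protein/20 nM FAM-probe or 0.31 nM protein/900 nM total probe (100 nM labeled), in TritonX buffer with 200 mM NaCl.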
DCN1 (DCUND1) protein PONY domain, sequence (Q96GG9 60-248): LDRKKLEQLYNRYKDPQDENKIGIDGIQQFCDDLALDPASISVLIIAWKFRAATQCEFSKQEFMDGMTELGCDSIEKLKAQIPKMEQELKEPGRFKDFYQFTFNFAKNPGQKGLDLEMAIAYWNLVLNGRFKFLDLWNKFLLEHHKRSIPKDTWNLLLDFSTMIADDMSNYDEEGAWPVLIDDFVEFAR
A general note: TR-FRET usually uses a lanthanide donor and a delayed reading to cut background.

The subject of experiment [2] is Cullin-3 (CUL3) neddylation. The experiment can be described thus: AlphaLISA assay for Cullin-3 (CUL3) neddylation in TF 1 cells. The format is cell-based. The conditions noted are these: 3 hours treatment. The protocol: An AiphaLISA assay was performed to evaluate the ability of the compounds to suppress neddylation, which is downstream from DCN-1 and DCN-2. A stronger inhibition of DCN-1 and DCN-2 is expected to result in a suppression of neddylation as shown by a lower AlphaLISA signal. The AlphaLISA assay for detecting Cullin-3 (CUL3) neddylation was performed according to manufacturer instructions (Revvity, Hopkinton, MA). Briefly, TF 1 cells (ATCC) were plated in Iscove's Modified Dulbecco's Medium (IMIDM) without supplements in 384-well plates. These cells were treated with […] for 3 hours before lysing them with AlphaLISA lysis buffer, 5× (Revvity). To detect the level of CUL3 neddylation, biotinylated anti-NEDD8 antibody, was added followed by AlphaLISA Acceptor beads conjugated with anti-CUL3 antibody. After overnight incubation, Streptavidin-coated Alpha Donor beads were added and incubated for 1 hour. The AlphaLISA signal was then read on a VICTOR Nivo Multimode Microplate Reader (Revvity, Hopkinton, MA). The positive control was 1 μM DI-1548, which is reported to reduce CUL3 neddylation, also referred to as C-1 in Example 41 (Zhou et al. Nature Comm. 2021). The neddylation signal was normalized such that the percent inhibition is 0% for vehicle control and 100% for positive control. The dose-response curves were fitted with the Hill equation to obtain IC50 values (Graphpad Prism).
(Alpha assays give light when donor and acceptor beads are brought close together.)

Setting [3] is: 24 hr after treatment with compound, read-out: TR FRET IC50 24 hr.
Setting [4] is: TR FRET IC50 1 hr (nM), 1 hr after treatment with compound.
Setting [5] is: read-out: TR FRET IC50 1 hr, 1 hr after treatment with compound.

For `CCN1C(=O)[C@@H](NC(=O)c2cccc(C(F)(F)F)c2)[C@@H](c2ccc(F)cc2)c2c(CNC(=O)/C=C(\C)C(=O)OC)nn(-c3ccccc3)c21` (racemic) [Compound I-150, rac-methyl (E)-4-((((4R,5R)-7-ethyl-4-(4-fluorophenyl)-6-oxo-1-phenyl-5-(3-(trifluoromethyl)benzamido)-4,5,6,7-tetrahydro-1H-pyrazolo[3,4-b]pyridin-3-yl)methyl)amino)-2-methyl-4-oxobut-2-enoate], the IC50 in experiment [1] (setting [3]) is 200 to 1000 nM; in experiment [1] (setting [4]) it was 1000 to 3000 nM; in experiment [2] (Homo sapiens, TF-1, 3 h) it was above 1000 nM.
With `CCN1C(=O)[C@@H](NC(=O)c2cccc(C(F)(F)F)c2)[C@@H](c2ccc(F)cc2)c2c(CN(C#N)CCO)nn(-c3ccccc3)c21` (racemic) [Compound I-244, ˜{N}—[˜{rac}-(4˜{S},5˜{S})-3-[[cyano(2-hydroxyethyl)amino]methyl]-7-ethyl-4-(4-fluorophenyl)-6-oxo-1-phenyl-4,5-dihydropyrazolo[3,4-b]pyridine-5-yl]-3-(trifluoromethyl)benzamide], the IC50 lay within 200 to 1000 nM in experiment [1] (setting [3]); 1000 to 3000 nM in experiment [1] (setting [4]); 100 to 1000 nM in experiment [2] (Homo sapiens, TF-1, 3 h).
As for `CCN1C(=O)[C@@H](NC(=O)c2cccc(C(F)(F)F)c2)[C@@H](c2ccc(F)cc2)c2c(C(=O)N(C)CC#N)nn(-c3ccccc3)c21` (racemic) [Compound I-398], the IC50 in experiment [1] (setting [3]) was 1000 to 3000 nM; in experiment [1] (setting [4]), 1000 to 3000 nM; in experiment [2], above 1000 nM.
`CCN1C(=O)[C@@H](NC(=O)c2cccc(C(F)(F)F)c2)[C@@H](c2ccc(F)cc2)c2c(C(=O)N(CC#N)CCN(C)C)nn(-c3ccccc3)c21` (racemic) [Compound I-448]: the half-maximal inhibitory concentration (IC50) was at most 200 nM in experiment [1] (setting [3]); at most 200 nM in experiment [1] (setting [5]); above 1000 nM in experiment [2] (Homo sapiens, TF-1, 3 h).
`CCN1C(=O)[C@@H](NC(=O)c2cccc(C(F)(F)F)c2)[C@@H](c2ccc(F)cc2)c2c(CN(C#N)CCN(C)C)nn(-c3ccccc3)c21` (racemic) [Compound I-486]: the IC50 was at most 200 nM in experiment [1] (setting [3]); 200 to 1000 nM in experiment [1] (setting [4]); at most 100 nM in experiment [2] (Homo sapiens, TF-1, 3 h).
For `CCN1C(=O)[C@@H](NC(=O)c2cccc(C(F)(F)F)c2)[C@@H](c2ccc(F)cc2)c2c(NC(=O)C3=CCCN(C)C3)nn(-c3ccccc3)c21` (racemic) [Compound I-488], in that order: at most 200 nM, 200 to 1000 nM and at most 100 nM.
As to `CCN1C(=O)[C@H](NC(=O)c2cccc(C(F)(F)F)c2)[C@H](c2ccc(F)cc2)c2c(C(=O)N(CC#N)C3COC3)nn(-c3ccccc3)c21` (racemic) [Compound I-603], the half-maximal inhibitory concentration (IC50) in experiment [1] (setting [3]) is at most 200 nM; in experiment [1] (setting [4]) it was 1000 to 3000 nM; in experiment [2] (Homo sapiens, TF-1, 3 h), 100 to 1000 nM.
The corresponding values for `CCN1C(=O)[C@@H](NC(=O)c2cccc(C(F)(F)F)c2)[C@@H](c2ccc(F)cc2)c2c(C(C)=O)nn(-c3ccccc3)c21` (racemic) [Compound I-649] are 1000 to 3000 nM, 1000 to 3000 nM and above 1000 nM.
The corresponding values for `CCN1C(=O)[C@@H](NC(=O)c2cccc(C(F)(F)F)c2)[C@@H](c2ccc(F)cc2)c2c(C(=O)N(C)C3(C#N)CCC3)nn(-c3ccccc3)c21` (racemic) [Compound I-689] are at most 200 nM, 1000 to 3000 nM and 100 to 1000 nM.
For `CCN1C(=O)[C@@H](NC(=O)c2cccc(C(F)(F)F)c2)[C@@H](C2CC2)c2c(C(=O)N3CC[C@@H](NC)[C@@H]3C#N)nn(C3CCOCC3)c21` (relative stereo) [Compound I-421, N-((4S,5S)-3-((2R*,3R*)-2-cyano-3-(methylamino)pyrrolidine-1-carbonyl)-4-cyclopropyl-7-ethyl-6-oxo-1-(tetrahydro-2H-pyran-4-yl)-4,5,6,7-tetrahydro-1H-pyrazolo[3,4-b]pyridin-5-yl)-3-(trifluoromethyl)benzamide], in that order: at most 200 nM, 1000 to 3000 nM and 100 to 1000 nM.
With `CN1C(=O)[C@H](NC(=O)c2cccc(C(F)(F)F)c2)[C@H](C2CC2)c2c(C(=O)N3[C@H](C#N)C[C@H]4C[C@H]43)nn(C3CCOCC3)c21` (relative stereo) [Compound I-528, N-((4R*,5R*)-3-((1 R,3S,5R)-3-cyano-2-azabicyclo[3.1.0]hexane-2-carbonyl)-4-cyclopropyl-7-methyl-6-oxo-1-(tetrahydro-2H-pyran-4-yl)-4,5,6,7-tetrahydro-1H-pyrazolo [3,4-b]pyridin-5-yl)-3-(trifluoromethyl)benzamide], the IC50 was 1000 to 3000 nM in experiment [1] (setting [3]); 1000 to 3000 nM in experiment [1] (setting [4]); above 1000 nM in experiment [2] (Homo sapiens, TF-1, 3 h).
`CCN1C(=O)[C@@H](NC(=O)c2cccc(C(F)(F)F)c2)[C@@H](c2ccc(F)cc2)c2c(C(=O)N3[C@H](C#N)C[C@H]4C[C@H]43)nn([C@H]3CCOC3)c21` (relative stereo) [Compound I-630, N-((4S*,5S*)-3-((1R,3S,5R)-3-cyano-2-azabicyclo[3.1.0]hexane-2-carbonyl)-7-ethyl-4-(4-fluorophenyl)-6-oxo-1-((S**)-tetrahydrofuran-3-yl)-4,5,6,7-tetrahydro-1H-pyrazolo[3,4-b]pyridin-5-yl)-3-(trifluoromethyl)benzamide]: the IC50 was at most 200 nM in experiment [1] (setting [3]); at most 200 nM in experiment [1] (setting [4]); at most 100 nM in experiment [2] (Homo sapiens, TF-1, 3 h).
Take `CN1C(=O)[C@@H](NC(=O)c2cccc(C(F)(F)F)c2)[C@@H](C2CC2)c2c(C(=O)N3[C@H](C#N)C[C@H]4C[C@H]43)nn(C3CCOCC3)c21` (relative stereo) [Compound I-650, N-((4S*,5S*)-3-((1R,3S,5R)-3-cyano-2-azabicyclo[3.1.0]hexane-2-carbonyl)-4-cyclopropyl-7-methyl-6-oxo-1-(tetrahydro-2H-pyran-4-yl)-4,5,6,7-tetrahydro-1H-pyrazolo[3,4-b]pyridin-5-yl)-3-(trifluoromethyl)benzamide]: the half-maximal inhibitory concentration (IC50) in experiment [1] (setting [3]) is at most 200 nM; in experiment [1] (setting [4]) it was at most 200 nM; in experiment [2] (Homo sapiens, TF-1, 3 h), at most 100 nM.
In the case of `CCN1C(=O)[C@@H](NC(=O)c2cccc(C(F)(F)F)c2)[C@@H](C2CC2)c2c(C(=O)N3CC[C@H](NC)[C@H]3C#N)nn(C3CCOCC3)c21` (relative stereo) [Compound I-687, N-((4S,5S)-3-((2S*,3S*)-2-cyano-3-(methylamino)pyrrolidine-1-carbonyl)-4-cyclopropyl-7-ethyl-6-oxo-1-(tetrahydro-2H-pyran-4-yl)-4,5,6,7-tetrahydro-1H-pyrazolo[3,4-b]pyridin-5-yl)-3-(trifluoromethyl)benzamide], the concentration for half-maximal inhibition (IC50) was at most 200 nM in experiment [1] (setting [3]); at most 200 nM in experiment [1] (setting [4]); at most 100 nM in experiment [2] (Homo sapiens, TF-1, 3 h).
Take `CCN1C(=O)[C@@H](NC(=O)c2cccc(C(F)(F)F)c2)[C@@H](c2ccc(F)cc2)c2c(CN(C#N)CCCCN(C)C)nn(-c3ccccc3)c21` (single isomer, unassigned) [Compound I-249, ˜{N}-[(4˜{S},5˜{R})-3-[[cyano-[4-(dimethylamino)butyl]amino]methyl]-7-ethyl-4-(4-fluorophenyl)-6-oxo-1-phenyl-4,5-dihydropyrazolo[3,4-b]pyridine-5-yl]-3-(trifluoromethyl)benzamide]: the IC50 in experiment [1] (setting [3]) was in the range of 200 to 1000 nM; in experiment [1] (setting [4]), 200 to 1000 nM; in experiment [2] (Homo sapiens, TF-1, 3 h), 100 to 1000 nM.
For `CCN1C(=O)[C@@H](NC(=O)c2cccc(C(F)(F)F)c2)[C@@H](C2CC2)c2c(C(=O)N3CCN(C)C[C@@H]3C#N)nn(C3CCOCC3)c21` (single isomer, unassigned) [Compound I-431], the IC50 lay in the range of 200 to 1000 nM in experiment [1] (setting [3]); 200 to 1000 nM in experiment [1] (setting [4]); 100 to 1000 nM in experiment [2] (Homo sapiens, TF-1, 3 h).
For `CCN1C(=O)[C@@H](NC(=O)c2nccc(C(F)(F)F)n2)[C@H](c2ccc(F)cc2)c2c(CC(=O)N[C@@H](C)C#N)nn(-c3ccccc3)c21` (single isomer, unassigned) [Compound I-451], the IC50 in experiment [1] (setting [3]) was 1000 to 3000 nM; in experiment [1] (setting [4]) it was 1000 to 3000 nM; in experiment [2] (Homo sapiens, TF-1, 3 h), above 1000 nM.
For the compound `CCN1C(=O)[C@@H](NC(=O)N2CCC[C@@H](C(F)(F)F)C2)C(c2ccc(F)cc2)c2c(C(=O)N3CCC[C@H]3C#N)nn(-c3ccccc3)c21` (single isomer, unassigned) [Compound I-464], the half-maximal inhibitory concentration (IC50) in experiment [1] (setting [3]) was 1000 to 3000 nM; in experiment [1] (setting [4]) it was 1000 to 3000 nM; in experiment [2] (Homo sapiens, TF-1, 3 h), above 1000 nM.
As to `CCN1C(=O)[C@@H](NC(=O)c2cccc(C(F)(F)F)c2)[C@@H](c2ccc(F)cc2)c2c(C(=O)N3[C@H](C#N)C[C@H]4C[C@H]43)nn([C@@H]3CCOC3)c21` (single isomer, unassigned) [Compound I-482], the figures for the IC50 in experiment [1] (setting [3]), in experiment [1] (setting [5]) and in experiment [2] were at most 200 nM, at most 200 nM and at most 100 nM, respectively.
